Assay results taken from patent US8822519B2, “Compound with agitation effect on peroxisome proliferator-activated receptor process for its preparation and use thereof” (Zhejiang Hisun Pharmaceutical Co., Ltd., priority 2008, dated 2014).

Experiments:
PPARδ = molecular target: T1, PPARδ (Homo sapiens, UniProt Q03181); experiment: In vitro screening of nuclear receptor agonist: luciferase reporter gene assay in HepG2 cells; assay type: cell-based; conditions: RXR/PPARδ luciferase reporter gene, 24 h treatment
T1 construct: expressed in transfected cells; host or cells: HepG2 (human hepatocarcinoma, ATCC)
T1 sequence (Q03181 1-441): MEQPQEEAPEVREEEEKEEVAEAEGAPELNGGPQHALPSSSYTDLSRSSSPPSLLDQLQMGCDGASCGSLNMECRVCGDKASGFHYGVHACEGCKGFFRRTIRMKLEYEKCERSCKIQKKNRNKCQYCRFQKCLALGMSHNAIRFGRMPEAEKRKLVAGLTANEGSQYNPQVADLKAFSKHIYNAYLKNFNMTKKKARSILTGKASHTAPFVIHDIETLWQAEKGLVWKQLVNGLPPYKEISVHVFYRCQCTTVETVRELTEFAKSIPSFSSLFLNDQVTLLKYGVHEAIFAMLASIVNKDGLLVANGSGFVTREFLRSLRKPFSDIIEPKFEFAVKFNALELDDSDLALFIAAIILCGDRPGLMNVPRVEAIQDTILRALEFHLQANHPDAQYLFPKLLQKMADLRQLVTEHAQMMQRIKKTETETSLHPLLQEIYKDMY
T1 sequence (P19793 1-462 partner): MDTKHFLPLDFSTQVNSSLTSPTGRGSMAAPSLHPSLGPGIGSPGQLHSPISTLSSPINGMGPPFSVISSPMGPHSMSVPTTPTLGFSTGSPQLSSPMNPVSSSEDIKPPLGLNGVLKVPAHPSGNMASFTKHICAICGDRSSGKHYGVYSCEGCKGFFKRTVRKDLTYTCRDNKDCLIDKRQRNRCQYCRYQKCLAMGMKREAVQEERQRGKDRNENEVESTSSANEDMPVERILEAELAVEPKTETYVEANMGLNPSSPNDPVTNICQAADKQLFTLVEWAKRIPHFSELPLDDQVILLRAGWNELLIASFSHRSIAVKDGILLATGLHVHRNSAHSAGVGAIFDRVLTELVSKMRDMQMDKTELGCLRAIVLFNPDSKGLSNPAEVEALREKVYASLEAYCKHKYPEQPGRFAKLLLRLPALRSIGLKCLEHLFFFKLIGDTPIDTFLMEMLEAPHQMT
From the text: Using a reporter gene protocol, the screening model for screening a nuclear receptor agonist in a living cell is designed on a basis of the principal that an activated nuclear receptor can activate transcription of its downstream gene. A reporter gene plasmid is constructed, in which the DNA binding sequence for the nuclear receptor (NRE) is inserted upstream of the luciferase gene, so that the expression of the luciferase gene is placed under the control of the nuclear receptor. Then, the reporter gene plasmid and the nuclear receptor are simultaneously transferred into a cell, and the nuclear receptor is activated when the nuclear receptor agonist is present in the cell culture medium. Then the activated receptor is able to induce the expression of the luciferase gene, while the amount of the luciferase can be determined through its luminous substrate. In this way, the intensity of activation by the compound on the nuclear receptor could be known by observing the luminescence intensity.
The specific operation is described as follows:
The experiment reagents: the compounds to be tested (20 mM, in DMSO, stored at −80° C.).
The hepatocarcinoma cell HepG2 (from ATCC, American Type Culture Collection) was cultured in DMEM medium supplemented with 10% heat-inactivated fetal bovine serum (FBS, Invitogen, Grand Island, N.Y., USA) in a T-75 culture bottle (Greiner, Germany) in a incubator at 37° C., the relative humidity of 100%, and 5% CO2. When the cell culture in the culture bottle reached 80-90% confluency, it was digested with 0.25% Trypsin (with EDTA) for 3 min and inoculated into a 96-well cell culture plate at an inoculating density of 2000 cells/100 μl/well.
In the next day, when the cells in the 96-well culture plate grew up to 50-80% confluency, cell transfection was performed. The cell co-transfection system comprised the FuGene6 transfection agent (Roche Molecular Biochemicals, Indianapolis, Ind., U.S.A.) and 60 ng DNA (long of hRXR, 10 ng of pCMV βGal, 10 ng of the nuclear receptor expression plasmid RXR/PPARδ, 30 ng of GFP fluorescence reporter gene plasmid, respectively).
The cell culture medium was discarded immediately at 24 hours post-transfection and replaced by 200 μl of a fresh DMEM medium containing the medicament to be tested (with 10% FBS treated by activated carbon).
24 h after treatment with the medicament, the cells were lysed with a lysis solution (Cell Culture Lysis buffer, Promega) and centrifuged, and the supernatant was collected. The supernatant was treated with a fluorescence detection kit (Promega) and counted by a fluorescence meter (Ascent Fluoroskan FL reader, Thermo Labsystems, Finland), and the relative intensity of the luciferase was determined. For assaying the β-galactosidase activity used in the experiment as the inner reference (the inner reference calibrating for the transfection efficiency), 50 μl of the supernatant was transferred into a fresh microplate and treated with the Promega kit and read at a wavelength of 405 nm from a microplate reader (Bio-tech Instruments Inc., Winooski, Vt., USA) (Sauerberg, P.; Olsen, G. S.; Jeppesen, L.; Mogensen, J. P. et al., J. Med. Chem., 2007, 50, 1495-1503).
The median effective concentration (EC50) of a sample is a concentration at which the sample has 50% pharmacological effect. This value is one of the important parameters for evaluating pharmacological effects of a compound. In the present screening process, the EC50 of a sample was calculated according to the activation of the receptor by the sample at six different concentrations.

[1] = system: high fat fodder obese C57BL/6J mice; experiment: High fat fodder obese mice: levels of blood lipid and blood glucose; assay type: in vivo; set-up: HDL / GLU / TC / TG: unit not given here; conditions: mean ± s, n 5
From the text: 3 week-old male C57BL/6J mice were chosen as experiment animals, 15 of which were randomly selected to feed with a standard fodder, and the remains were allowed to feed with a high fat fodder, with each of the mice being marked by ear-cutting. The body weights and fodder intake of the mice were weighed every week. […] […], the effects of the medicaments on the levels of blood lipid and blood glucose, body weight, and fodder intake in the animals were observed, while a glucose tolerance test was performed to investigate the effects of the medicaments on the glucose tolerance in the animals.

[2] = system: high fat fodder obese C57BL/6J mice; experiment: High fat fodder obese mice: body weight and food intake; assay type: in vivo
From the text: 3 week-old male C57BL/6J mice were chosen as experiment animals, 15 of which were randomly selected to feed with a standard fodder, and the remains were allowed to feed with a high fat fodder, with each of the mice being marked by ear-cutting. The body weights and fodder intake of the mice were weighed every week. […] After the administration of the inventive compounds for four weeks, the effects of the medicaments on the levels of blood lipid and blood glucose, body weight, and fodder intake in the animals were observed, while a glucose tolerance test was performed to investigate the effects of the medicaments on the glucose tolerance in the animals.

[3] = 2 weeks administration, 10 mg/kg
[4] = 2 weeks administration, 30 mg/kg
[5] = 4 weeks administration, 10 mg/kg
[6] = 4 weeks administration, 30 mg/kg

In the case of `Cc1cc(OC(c2ccccc2)c2nn(-c3ccc(C(F)(F)F)cc3)c(=O)n2C)ccc1SCC(=O)O` (centres unmarked) [Compound A-2, 2-(2-methyl-4-(1-(3-(4-methyl-5-oxo-1-(4-trifluoromethyl-phenyl)-4,5-dihydrogen-1H-1,2,4-triazolyl))-benzyloxy)-phenylthio)-acetic acid], the EC50 (PPARδ) is reported as 0.1 µM.

Work on `Cc1cc(SC(c2ccccc2)c2nn(-c3ccc(C(F)(F)F)cc3)c(=O)n2C)ccc1OCC(=O)O` (centres unmarked) [Compound A-4, 2-(2-methyl-4-(1-(3-(4-methyl-5-oxo-1-(4-trifluoromethyl-phenyl)-4,5-dihydrogen-1H-1,2,4-triazolyl))-benzylthio)-phenoxy)-acetic acid] yielded an EC50 (PPARδ) of 0.01 µM.

`CCc1cc(OC(c2ccccc2)c2nn(-c3ccc(C(F)(F)F)cc3)c(=O)n2C)ccc1OCC(=O)O` (centres unmarked) [Compound A-5, 2-(2-ethyl-4-(1-(3-(4-methyl-5-oxo-1-(4-trifluoromethyl-phenyl)-4,5-dihydrogen-1H-1,2,4-triazolyl))-benzyloxy)-phenoxy)-acetic acid] showed an EC50 (PPARδ) of 0.34 µM.

`Cc1cc(OCC(=O)O)ccc1OC(c1ccccc1)c1nn(-c2ccc(C(F)(F)F)cc2)c(=O)n1C` (centres unmarked) [Compound A-6, 2-(3-methyl-4-(1-(3-(4-methyl-5-oxo-1-(4-trifluoromethyl-phenyl)-4,5-dihydrogen-1H-1,2,4-triazolyl))-benzyloxy)-phenoxy)-acetic acid] showed an EC50 (PPARδ) of 2.09 µM.

With `Cc1cc(OCC(=O)O)ccc1SC(c1ccccc1)c1nn(-c2ccc(C(F)(F)F)cc2)c(=O)n1C` (centres unmarked) [Compound A-7, 2-(3-methyl-4-(1-(3-(4-methyl-5-oxo-1-(4-trifluoromethyl-phenyl)-4,5-dihydrogen-1H-1,2,4-triazolyl))-benzylthio)-phenoxy)-acetic acid] the EC50 (PPARδ) was 0.38 µM.

For `Cc1cc(SCc2nn(-c3ccc(C(F)(F)F)cc3)c(=O)n2C)ccc1OCC(=O)O` [Compound A-8, 2-(2-methyl-4-(3-(4-methyl-5-oxo-1-(4-trifluoromethyl-phenyl)-4,5-dihydrogen-1H-1,2,4-triazolyl)-methylthio)-phenoxy)-acetic acid], the EC50 (PPARδ) was 3.02 µM.

With `Cc1cc(OCc2nn(-c3ccc(C(F)(F)F)cc3)c(=O)n2C)ccc1OCC(=O)O` [Compound A-9, 2-(2-methyl-4-(3-(4-methyl-5-oxo-1-(4-trifluoromethyl-phenyl)-4,5-dihydrogen-1H-1,2,4-triazolyl)-methoxy)-phenoxy)-acetic acid] the EC50 (PPARδ) was 6.61 µM.

With `Cc1cc(SC(c2ccccc2)c2nn(-c3ccc(C(F)(F)F)cc3)c(=O)n2C)c(C)cc1OCC(=O)O` (centres unmarked) [Compound A-10, 2-(2,5-dimethyl-4-(1-(3-(4-methyl-5-oxo-1-(4-trifluoromethyl-phenyl)-4,5-dihydrogen-1H-1,2,4-triazolyl))-benzylthio)-phenoxy)-acetic acid] the EC50 (PPARδ) was 0.1 µM.

Molecule `Cc1cc(SCC(=O)O)ccc1OCc1nn(-c2ccc(C(F)(F)F)cc2)c(=O)n1C` [Compound A-12, 2-(3-methyl-4-(3-(4-methyl-5-oxo-1-(4-trifluoromethyl-phenyl)-4,5-dihydrogen-1H-1,2,4-triazolyl)-methoxy)-phenylthio)-acetic acid] has an EC50 (PPARδ) of 0.65 µM.

`Cc1cc(SC(c2ccccc2)c2nn(-c3ccc(C(F)(F)F)cc3)c(=O)n2C)ccc1OC(C)C(=O)O` (centres unmarked) [Compound A-13, 2-methyl-2-(2-methyl-4-(1-(3-(4-methyl-5-oxo-1-(4-trifluoromethyl-phenyl)-4,5-dihydrogen-1H-1,2,4-triazolyl))-benzylthio)-phenoxy)-acetic acid] gave an EC50 (PPARδ) of 0.02 µM.

`CCc1cc(SC(c2ccccc2)c2nn(-c3ccc(C(F)(F)F)cc3)c(=O)n2C)ccc1OCC(=O)O` (centres unmarked) [Compound A-14, 2-(2-ethyl-4-(1-(3-(4-methyl-5-oxo-1-(4-trifluoromethyl-phenyl)-4,5-dihydrogen-1H-1,2,4-triazolyl))-benzylthio)-phenoxy)-acetic acid] was tested, and the EC50 (PPARδ) was under 0.001 µM.

`Cc1cc(SC(C)(C)C(=O)O)ccc1OC(c1ccccc1)c1nn(-c2ccc(C(F)(F)F)cc2)c(=O)n1C` (centres unmarked) [Compound A-15, 2,2-dimethyl-2-(3-methyl-4-(1-(3-(4-methyl-5-oxo-1-(4-trifluoromethyl-phenyl)-4,5-dihydrogen-1H-1,2,4-triazolyl))-benzyloxy)-phenylthio)-acetic acid] gave an EC50 (PPARδ) of 0.02 µM.

Work on `CCCCCCCCCCC[C@@H](C[C@@H]1OC(=O)[C@H]1CCCCCC)OC(=O)[C@H](CC(C)C)NC=O` [Orlistat, reference compound] yielded a GLU [1, 3] of 11.11 ± 1.08, an HDL [1, 3] of 3.29 ± 0.27 and a TC [1, 3] of 3.81 ± 2.56. For the same molecule, the TG [1, 3] was 0.36 ± 0.09, the GLU [1, 4] was 8.81 ± 2.16 and the HDL [1, 4] was 2.72 ± 0.3. The TC [1, 4] was 3.89 ± 0.44, the TG [1, 4] was 0.45 ± 0.09 and the GLU [1, 5] was 11.05 ± 1.09. For the same molecule, the HDL [1, 5] was 2.63 ± 1.27, the TC [1, 5] was 4.24 ± 0.33 and the TG [1, 5] was 0.28 ± 0.03. It also gave a GLU [1, 6] of 9.84 ± 1.83, an HDL [1, 6] of 2.79 ± 0.35 and a TC [1, 6] of 3.48 ± 0.54. The TG [1, 6] was 0.41 ± 0.04, the Food intake ([2]; column 1, 10 mg/kg) was 5.88 g and the Food intake ([2]; column 1, 30 mg/kg) was 6.04 g. The Food intake ([2]; column 2, 10 mg/kg) was 5.42 g, the Food intake ([2]; column 2, 30 mg/kg) was 4.66 g and the Food intake ([2]; column 3, 10 mg/kg) was 6.7 g. For the same molecule, the Food intake ([2]; column 3, 30 mg/kg) was 5.52 g, the Food intake ([2]; column 4, 10 mg/kg) was 6.64 g and the Food intake ([2]; column 4, 30 mg/kg) was 7.78 g. The Food intake ([2]; column 5, 10 mg/kg) was 6.4 g and the Food intake ([2]; column 5, 30 mg/kg) was 7.92 g.
